Measured values published in patent US10858362B2, “Imidazopyrazinones as PDE1 inhibitors” (H. Lundbeck A/S, priority 2015, dated 2020).

Assays:
Assay type in all cases: biochemical
PDE9 = PDE9 (Homo sapiens (Human), UniProt O76083); assay: PDE9 inhibition assay
Experimental: A PDE9 assay may for example, be performed as follows: The assay is performed in 60 μL samples containing a fixed amount of the relevant PDE enzyme (sufficient to convert 20-25% of the cyclic nucleotide substrate), a buffer (50 mM HEPES7.6; 10 mM MgCl2; 0.02% Tween20), 0.1 mg/ml BSA, 225 pCi of ^3H-labelled cyclic nucleotide substrate, tritium labeled cAMP to a final concentration of 5 nM and varying amounts of inhibitors. Reactions are initiated by addition of the cyclic nucleotide substrate, and reactions are allowed to proceed for one hr at room temperature before being terminated through mixing with 15 μL 8 mg/mL yttrium silicate SPA beads (Amersham). The beads are allowed to settle for one hr in the dark before the plates are counted in a Wallac 1450 Microbeta counter.
In the context of the present invention the assay was performed in 60 μL assay buffer (50 mM HEPES pH 7.6; 10 mM MgCl2; 0.02% Tween20) containing enough PDE9 to convert 20-25% of 10 nM ^3H-cAMP and varying amounts of inhibitors. Following a 1 hr incubation the reactions were terminated by addition of 15 μL 8 mg/mL yttrium silicate SPA beads (Amersham). The beads were allowed to settle for one hr in the dark before the plates were counted in a Wallac 1450 Microbeta counter.

PDE1C = PDE1C (Homo sapiens (Human), UniProt Q14123); assay: PDE1 inhibition assay, PDE1C; conditions: for IC50: 15 nM tritium labelled cAMP
Chain of PDE1C (Q14123 whole entry): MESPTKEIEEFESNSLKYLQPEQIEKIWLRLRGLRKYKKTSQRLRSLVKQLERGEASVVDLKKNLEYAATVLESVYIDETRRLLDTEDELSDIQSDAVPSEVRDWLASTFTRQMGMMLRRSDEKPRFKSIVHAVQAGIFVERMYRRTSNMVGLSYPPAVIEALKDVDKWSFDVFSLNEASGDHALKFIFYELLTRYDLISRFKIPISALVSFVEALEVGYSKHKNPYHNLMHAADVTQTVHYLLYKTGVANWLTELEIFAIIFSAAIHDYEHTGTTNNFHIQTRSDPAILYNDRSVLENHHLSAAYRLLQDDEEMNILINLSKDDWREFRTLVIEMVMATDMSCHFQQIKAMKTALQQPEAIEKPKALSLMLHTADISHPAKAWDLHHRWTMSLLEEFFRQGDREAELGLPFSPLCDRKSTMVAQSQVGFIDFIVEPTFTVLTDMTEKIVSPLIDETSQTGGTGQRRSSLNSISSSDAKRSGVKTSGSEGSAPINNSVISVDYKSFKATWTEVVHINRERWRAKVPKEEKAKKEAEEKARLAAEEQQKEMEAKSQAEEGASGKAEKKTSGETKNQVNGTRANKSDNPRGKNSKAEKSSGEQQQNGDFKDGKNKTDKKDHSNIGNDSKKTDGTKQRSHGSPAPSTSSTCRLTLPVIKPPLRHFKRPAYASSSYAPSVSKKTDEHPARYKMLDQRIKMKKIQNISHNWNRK
Experimental: (§1) Reactions were initiated by addition of the cyclic nucleotide substrate, and reactions were allowed to proceed for 1 h at room temperature before being terminated through mixing with 20 μL (0.2 mg) yttrium silicate SPA beads (PerkinElmer). The beads were allowed to settle for 1 h in the dark before the plates were counted in a Wallac 1450 Microbeta counter.

PDE1B = PDE1B (Homo sapiens (Human), UniProt Q01064); assay: PDE1 inhibition assay, PDE1B; conditions: for IC50: 15 nM tritium labelled cAMP
Chain of PDE1B (Q01064 whole entry): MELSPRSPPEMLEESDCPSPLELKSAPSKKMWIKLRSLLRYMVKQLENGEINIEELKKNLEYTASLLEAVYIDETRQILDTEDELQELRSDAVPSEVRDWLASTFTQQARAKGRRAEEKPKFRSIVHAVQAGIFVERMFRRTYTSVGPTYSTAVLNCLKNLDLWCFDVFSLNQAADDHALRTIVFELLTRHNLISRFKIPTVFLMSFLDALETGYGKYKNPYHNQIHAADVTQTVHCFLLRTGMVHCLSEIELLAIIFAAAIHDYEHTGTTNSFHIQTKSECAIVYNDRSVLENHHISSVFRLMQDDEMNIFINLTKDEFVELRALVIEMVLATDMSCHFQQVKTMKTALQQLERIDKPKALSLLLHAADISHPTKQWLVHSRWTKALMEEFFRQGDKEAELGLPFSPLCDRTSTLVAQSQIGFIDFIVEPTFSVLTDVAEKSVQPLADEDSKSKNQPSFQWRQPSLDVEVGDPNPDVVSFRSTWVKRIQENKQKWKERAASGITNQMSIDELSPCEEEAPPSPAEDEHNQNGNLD
Experimental: as §1

PDE1A = PDE1A (Homo sapiens (Human), UniProt P54750); assay: PDE1 inhibition assay, PDE1A; conditions: 15 nM tritium labelled cAMP
Chain of PDE1A (P54750 whole entry): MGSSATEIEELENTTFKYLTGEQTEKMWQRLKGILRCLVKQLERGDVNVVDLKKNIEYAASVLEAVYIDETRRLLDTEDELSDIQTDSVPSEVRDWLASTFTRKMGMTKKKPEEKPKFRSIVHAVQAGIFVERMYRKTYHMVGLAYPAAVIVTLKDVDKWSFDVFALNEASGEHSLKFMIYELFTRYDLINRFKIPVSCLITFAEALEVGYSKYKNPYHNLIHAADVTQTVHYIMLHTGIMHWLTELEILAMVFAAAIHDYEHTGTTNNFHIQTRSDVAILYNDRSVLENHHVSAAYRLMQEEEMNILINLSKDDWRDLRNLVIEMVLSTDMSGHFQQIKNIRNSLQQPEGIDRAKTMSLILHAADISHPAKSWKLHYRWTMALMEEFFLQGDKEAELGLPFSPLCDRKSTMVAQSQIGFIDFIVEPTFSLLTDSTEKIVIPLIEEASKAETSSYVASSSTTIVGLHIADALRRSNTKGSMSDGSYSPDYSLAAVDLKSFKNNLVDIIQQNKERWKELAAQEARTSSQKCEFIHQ
Experimental: Reactions were initiated by addition of the cyclic nucleotide substrate, and reactions were allowed to proceed for 1 h at room temperature before being terminated through mixing with 20 μL (0.2 mg) yttrium silicate SPA beads (PerkinElmer).

Chain of PDE9 (O76083 whole entry): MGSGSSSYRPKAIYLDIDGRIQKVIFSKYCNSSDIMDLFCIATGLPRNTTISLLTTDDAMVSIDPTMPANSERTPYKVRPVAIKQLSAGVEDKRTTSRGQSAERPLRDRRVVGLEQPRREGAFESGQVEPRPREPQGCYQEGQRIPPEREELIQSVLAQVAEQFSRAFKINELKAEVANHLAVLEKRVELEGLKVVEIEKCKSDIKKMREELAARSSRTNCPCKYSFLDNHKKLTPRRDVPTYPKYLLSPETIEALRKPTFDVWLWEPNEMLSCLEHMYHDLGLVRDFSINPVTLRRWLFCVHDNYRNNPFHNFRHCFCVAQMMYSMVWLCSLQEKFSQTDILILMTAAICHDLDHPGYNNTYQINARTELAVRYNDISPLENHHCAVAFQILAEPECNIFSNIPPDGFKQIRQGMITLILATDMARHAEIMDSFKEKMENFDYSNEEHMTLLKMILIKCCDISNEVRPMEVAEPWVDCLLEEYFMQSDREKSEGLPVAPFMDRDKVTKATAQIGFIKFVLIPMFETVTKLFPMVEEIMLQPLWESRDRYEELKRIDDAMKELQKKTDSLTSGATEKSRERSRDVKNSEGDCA

Question: Which results are given for `Cc1cn2c(C3C[C@@H]3F)ncc2c(=O)n1Cc1cccc(F)c1` (single isomer, unassigned; isomer 2) [37, isomer 2]?
Answer: % inhibition of PDE9 at 10 microM (PDE9): 13%; IC50 (PDE1C): 55 nM

Question: `COc1ccc(Cn2c(C)cn3c(C(C)(C)F)ncc3c2=O)cc1` [Example 87, 3-(2-fluoropropan-2-yl)-7-(4-methoxybenzyl)-6-methylimidazo[1,5-a]pyrazin-8(7H)-one] was tested. Which inhibition at 10 µM (PDE9) did it give?
Answer: 10%

Question: How did the IC50 (PDE1B) turn out when `COc1ccc(Cn2c(C)cn3c([C@@H]4CCO[C@H]4C)ncc3c2=O)cc1` (single isomer, unassigned; isomer 3) [55, isomer 3] was run?
Answer: 3 nM

Question: Which results are given for `COc1ccc(Cn2c(C)cn3c(NC4CCOC4)ncc3c2=O)cc1` (centres unmarked) [Example 94, 7-(4-methoxybenzyl)-6-methyl-3-((tetrahydrofuran-3-yl)amino)imidazo[1,5-a]pyrazin-8(7H)-one]?
Answer: inhibition at 10 µM (PDE9): -5%; IC50 (PDE1A): 2520 nM

Question: How did the “% inhibition of PDE9 at 10 microM” value (PDE9) turn out when `COc1ccc(Cn2c(C)cn3c([C@H]4CCO[C@H]4C)ncc3c2=O)cc1` (single isomer, unassigned; isomer 4) [55, isomer 4] was run?
Answer: 1%

Question: And the IC50 (PDE1B)?
Answer: 208 nM

Question: With `Cc1cn2c([C@@H]3CCO[C@H]3C)ncc2c(=O)n1Cc1cccc(F)c1` (single isomer, unassigned; isomer 3) [36, isomer 3] as the compound, how does the “% inhibition of PDE9 at 10 microM” value (PDE9) read?
Answer: −10%

Question: And the IC50 (PDE1A)?
Answer: 77 nM

Question: And the IC50 (PDE1B)?
Answer: 21 nM

Question: What does the source list for `COc1cc(Cn2c(C)cn3c(C4CCOCC4)ncc3c2=O)ccc1Cl` [Example 48, 7-(4-chloro-3-methoxybenzyl)-6-methyl-3-(tetrahydro-2H-pyran-4-yl)imidazo[1,5-a]pyrazin-8(7H)-one]?
Answer: inhibition at 10 µM (PDE9): 10%; inhibition at 1 µM (PDE1B; read-out: PDE1B, % inhibition (at 1 μM)): 54%; inhibition at 1 µM (PDE1C; read-out: PDE1C, % inhibition (at 1 μM)): 34%

Question: `COc1ccc(Cn2c(C)cn3c([C@@H]4CCO[C@@H]4C)ncc3c2=O)cc1` (single isomer, unassigned; isomer 1) [55, isomer 1] was tested. Which “% inhibition of PDE9 at 10 microM” value (PDE9) did it give?
Answer: 18%

Question: And the IC50 (PDE1B)?
Answer: 10 nM

Question: `COc1ccc(Cn2c(C)cn3c([C@@H]4CCO[C@H]4C)ncc3c2=O)cc1` (single isomer, unassigned; isomer 2) [55, isomer 2] was tested. Which “% inhibition of PDE9 at 10 microM” value (PDE9) did it give?
Answer: −13%

Question: What about the IC50 (PDE1B) of the same compound?
Answer: 64 nM

Question: For `COc1ccc(Cn2c(C)cn3c(C(C)C)ncc3c2=O)cc1` [Example 77, 3-isopropyl-7-(4-methoxybenzyl)-6-methylimidazo[1,5-a]pyrazin-8(7H)-one], which IC50 (PDE1A) is on record?
Answer: 13 nM

Question: What about the IC50 (PDE1B) of the same compound?
Answer: 7 nM

Question: And the IC50 (PDE1C)?
Answer: 20 nM

Question: For `COc1ccc(Cn2c(C)cn3c(N4CCOC[C@@H]4C)ncc3c2=O)cc1` [Example 96, (S)-7-(4-methoxybenzyl)-6-methyl-3-(3-methylmorpholino)imidazo[1,5-a]pyrazin-8(7H)-one], which IC50 (PDE1A) is on record?
Answer: 48 nM

Question: And the IC50 (PDE1B)?
Answer: 38 nM

Question: And the IC50 (PDE1C)?
Answer: 51 nM

Question: Which results are given for `Cc1cn2c([C@H]3CCO[C@@H]3C)ncc2c(=O)n1Cc1cccc(F)c1` (single isomer, unassigned; isomer 2) [36, isomer 2]?
Answer: % inhibition of PDE9 at 10 microM (PDE9): 11%; IC50 (PDE1A): 282 nM; IC50 (PDE1B): 107 nM

Question: How did the “% inhibition of PDE9 at 10 microM” value (PDE9) turn out when `Cc1cn2c(C3C[C@H]3F)ncc2c(=O)n1Cc1cccc(F)c1` (single isomer, unassigned; isomer 2) [38, isomer 2] was run?
Answer: 2%

Question: What about the IC50 (PDE1C) of the same compound?
Answer: 153 nM

Question: Which results are given for `Cc1cn2c(C3C[C@@H]3F)ncc2c(=O)n1Cc1cccc(F)c1` (single isomer, unassigned; isomer 1) [37, isomer 1]?
Answer: % inhibition of PDE9 at 10 microM (PDE9): −2%; IC50 (PDE1C): 345 nM

Question: For `Cc1cn2c(C3C[C@H]3F)ncc2c(=O)n1Cc1cccc(F)c1` (single isomer, unassigned; isomer 1) [38, isomer 1], which “% inhibition of PDE9 at 10 microM” value (PDE9) is on record?
Answer: −1%

Question: What does the source list for `COc1ccc(Cn2c(C)cn3c(C4(C)CCN(C)CC4)ncc3c2=O)cc1` [Example 73, 3-(1,4-dimethylpiperidin-4-yl)-7-(4-methoxybenzyl)-6-methylimidazo[1,5-a]pyrazin-8(7H)-one]?
Answer: IC50 (PDE1A): 1920 nM; IC50 (PDE1B): 1450 nM; IC50 (PDE1C): 2450 nM

Question: What does the source list for `Cc1cn2c([C@@H]3CCO[C@@H]3C)ncc2c(=O)n1Cc1cccc(F)c1` (single isomer, unassigned; isomer 1) [36, isomer 1]?
Answer: % inhibition of PDE9 at 10 microM (PDE9): 3%; IC50 (PDE1A): 152 nM; IC50 (PDE1B): 59 nM
